Measurements taken from publication PMC10070013, “Apigenin improves cytotoxicity of antiretroviral drugs against HTLV-1 infected cells through the modulation of AhR signaling” (Neuroimmune Pharmacology and Therapeutics, 2023).

Key:
[1] = target: T1, aryl hydrocarbon receptor (AhR) (Homo sapiens, UniProt P35869); experiment: Nano-ITC with recombinant protein; type: binding
T1 construct: Recombinant human AhR (LS-G13702-10)

[2] = target: T2, ATP binding cassette subfamily B member 1 (ABCB1/P-gp) (Homo sapiens, UniProt P08183); experiment: Nano-ITC with recombinant protein (positive control protein)
T2 construct: Recombinant human ABCB1 (LS-G142372-20)
T2 sequence (P08183 whole entry): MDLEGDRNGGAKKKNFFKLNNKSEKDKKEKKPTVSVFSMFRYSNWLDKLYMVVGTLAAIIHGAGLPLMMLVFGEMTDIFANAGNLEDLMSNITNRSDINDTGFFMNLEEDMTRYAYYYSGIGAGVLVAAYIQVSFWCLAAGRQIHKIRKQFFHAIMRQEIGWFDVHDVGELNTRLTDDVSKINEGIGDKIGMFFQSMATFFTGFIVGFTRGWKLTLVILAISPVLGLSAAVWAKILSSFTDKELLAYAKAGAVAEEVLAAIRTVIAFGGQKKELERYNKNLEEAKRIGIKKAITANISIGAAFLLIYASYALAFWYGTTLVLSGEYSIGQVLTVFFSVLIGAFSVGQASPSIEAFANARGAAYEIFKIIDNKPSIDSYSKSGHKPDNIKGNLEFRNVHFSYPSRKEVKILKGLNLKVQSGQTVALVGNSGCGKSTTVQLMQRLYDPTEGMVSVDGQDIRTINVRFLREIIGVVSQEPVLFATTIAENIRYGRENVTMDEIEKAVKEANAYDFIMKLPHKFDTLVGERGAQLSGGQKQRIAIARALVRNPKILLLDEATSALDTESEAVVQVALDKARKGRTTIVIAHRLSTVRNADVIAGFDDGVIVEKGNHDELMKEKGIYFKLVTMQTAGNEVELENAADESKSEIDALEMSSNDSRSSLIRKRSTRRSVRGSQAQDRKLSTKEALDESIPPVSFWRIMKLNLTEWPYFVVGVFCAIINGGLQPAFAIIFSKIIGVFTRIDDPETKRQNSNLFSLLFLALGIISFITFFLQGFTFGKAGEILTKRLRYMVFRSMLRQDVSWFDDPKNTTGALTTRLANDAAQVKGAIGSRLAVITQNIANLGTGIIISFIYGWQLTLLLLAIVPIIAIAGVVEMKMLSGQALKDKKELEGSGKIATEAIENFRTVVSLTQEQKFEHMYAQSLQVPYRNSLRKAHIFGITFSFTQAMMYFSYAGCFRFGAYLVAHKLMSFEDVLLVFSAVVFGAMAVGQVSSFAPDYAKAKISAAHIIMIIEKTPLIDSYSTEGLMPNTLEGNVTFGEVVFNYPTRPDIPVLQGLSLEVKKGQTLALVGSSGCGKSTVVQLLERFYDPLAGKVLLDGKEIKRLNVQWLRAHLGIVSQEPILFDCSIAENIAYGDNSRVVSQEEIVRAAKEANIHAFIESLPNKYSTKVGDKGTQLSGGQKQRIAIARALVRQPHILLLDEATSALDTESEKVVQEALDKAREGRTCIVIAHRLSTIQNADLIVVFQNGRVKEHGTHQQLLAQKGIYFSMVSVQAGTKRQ

T1 sequence (P35869 11-848): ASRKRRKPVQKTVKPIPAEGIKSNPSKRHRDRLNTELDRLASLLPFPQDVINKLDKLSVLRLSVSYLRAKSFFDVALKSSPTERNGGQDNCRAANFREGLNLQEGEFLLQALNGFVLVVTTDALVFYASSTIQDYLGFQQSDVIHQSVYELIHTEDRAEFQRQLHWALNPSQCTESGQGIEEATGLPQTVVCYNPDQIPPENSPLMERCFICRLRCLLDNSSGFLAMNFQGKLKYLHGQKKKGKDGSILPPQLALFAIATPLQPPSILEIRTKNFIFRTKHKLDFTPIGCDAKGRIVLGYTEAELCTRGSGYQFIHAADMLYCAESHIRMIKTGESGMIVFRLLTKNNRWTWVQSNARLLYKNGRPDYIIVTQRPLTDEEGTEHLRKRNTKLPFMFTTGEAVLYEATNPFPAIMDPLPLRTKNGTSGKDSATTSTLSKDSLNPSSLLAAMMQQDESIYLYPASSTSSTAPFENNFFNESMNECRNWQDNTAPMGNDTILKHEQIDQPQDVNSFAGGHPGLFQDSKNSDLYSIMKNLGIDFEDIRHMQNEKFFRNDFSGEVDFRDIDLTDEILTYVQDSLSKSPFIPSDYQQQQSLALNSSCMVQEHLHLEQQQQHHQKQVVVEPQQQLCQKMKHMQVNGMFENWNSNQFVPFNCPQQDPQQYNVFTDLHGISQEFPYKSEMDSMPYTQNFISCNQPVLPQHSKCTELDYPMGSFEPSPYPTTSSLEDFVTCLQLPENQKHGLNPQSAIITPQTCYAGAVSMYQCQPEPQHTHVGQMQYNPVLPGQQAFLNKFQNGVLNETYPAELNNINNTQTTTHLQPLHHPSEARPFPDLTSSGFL

Structure (SMILES): O=c1cc(-c2ccc(O)cc2)oc2cc(O)cc(O)c12 [Apigenin]
- Kd [1]: 4.24 µM
- Kd [2]: 0.001 µM
